Where “and” joins values, the source holds several entries; their conditions need not be identical. Equal entries are not always repeated.
Test system: rat
Experiment: animal or person
Format: in vivo
Conditions: for ED50: ip

Structure (SMILES)	ED50 (Rattus norvegicus, 2 h) [mg/kg]	timepoint of peak effect (rat, in vivo) [min p. appl.]	ED50 (rat, in vivo)
O=C(O)Cc1ccccc1Nc1c(Cl)cccc1Cl [Diclofenac sodium]	127	120	127,036 μg/kg and 127,036 (119,433- μg/kg
COc1ccc2c(c1)c(CC(=O)O)c(C)n2C(=O)c1ccc(Cl)cc1 [Indometacin]	161	120	161,327 μg/kg and 161,327 (149,231- μg/kg
